Measurements reported in a compilation of properties of binary mixtures (doi:10.1021/acs.jced.1c00387).

Experiment: xn = mol fraction of the nth substance listed
Conditions: 81.5 kPa

CC(=O)[O-].CC[n+]1ccn(C)c1 + CN(CCO)CCO
viscosity [mPa·s]
Conditions | 293.15 K | 303.15 K | 313.15 K | 323.15 K | 333.15 K | 343.15 K | 353.15 K
x2 = 0 | 204 | 106 | 61.6 | 39.4 | – | 19.3 | –
x2 = 0.2 | 193 | 105 | 63.5 | 41.3 | 28.6 | 20.7 | 15.7
x2 = 0.4 | – | 96 | 59.8 | – | 28.1 | 20.6 | 15.6
x2 = 0.6 | 128 | 76.2 | 48.8 | 33.2 | 23.6 | 17.5 | 13.4
x2 = 0.8 | 109 | 61.5 | 39.1 | 26.4 | 18.7 | 13.7 | –

CC(C)(N)CO + CC(=O)[O-].CC[n+]1ccn(C)c1
viscosity [mPa·s]
Conditions | 293.15 K | 303.15 K | 313.15 K | 323.15 K | 333.15 K | 343.15 K | 353.15 K
x1 = 0.2 | 198 | 104 | 60.3 | 38.3 | 26 | 18.6 | 13.5
x1 = 0.4 | 136 | 74.9 | 45.5 | 29.9 | 20.9 | – | 11.7
x1 = 0.6 | 94.7 | – | 33.2 | – | 15.7 | – | 8.8
x1 = 0.8 | – | – | 29.3 | 18.6 | – | – | 6.8
x1 = 1 | – | – | 54.4 | 25.5 | 14.6 | 9.2 | 5.9

OCCNCCO + CC(=O)[O-].CC[n+]1ccn(C)c1
viscosity [mPa·s]
Conditions | 293.15 K | 303.15 K | 313.15 K | 323.15 K | 333.15 K | 343.15 K | 353.15 K
x1 = 0.2 | 202 | – | – | 41.2 | 28.3 | 20.4 | 15.3
x1 = 0.4 | 197 | 108 | 65.2 | 42.4 | – | 21.2 | 15.9
x1 = 0.6 | 214 | – | 68.6 | 43.9 | 29.8 | 21.3 | –
x1 = 0.8 | – | 175 | 95.6 | 56.8 | 36.1 | 24.4 | –
x1 = 1 | – | – | 191 | 102 | 58.2 | 35.5 | 23

CC(=O)[O-].CC[n+]1ccn(C)c1 + OCCNCCO
x2 = 0
Conditions | viscosity [mPa·s]
323.15 K | 39.4
343.15 K | 19.3
353.15 K | 14.6

CN(CCO)CCO + CC(=O)[O-].CC[n+]1ccn(C)c1
x1 = 1
Conditions | viscosity [mPa·s]
303.15 K | 58
323.15 K | 22.1
333.15 K | 14.9
343.15 K | 10.4
353.15 K | 7.4

CC(=O)[O-].CC[n+]1ccn(C)c1 + CC(C)(N)CO
x2 = 0
Conditions | viscosity [mPa·s]
293.15 K | 204
303.15 K | 106
313.15 K | 61.6
323.15 K | 39.4
333.15 K | 26.8
343.15 K | 19.3
353.15 K | 14.6
